Reference: ChEMBL document CHEMBL1926617, “Antifungal activities of novel non-azole molecules against S. cerevisiae and C. albicans” (Eur J Med Chem, 2012)
In brackets after ≈: the same amount, converted by molar mass. Activity calls are given as the source filed them. No cut-off for these calls is given here.

Tests used:
Saccharomyces cerevisiae [1] = assay: Antifungal activity against Saccharomyces cerevisiae ATCC 24657 assessed as growth inhibition after 24 to 48 hrs by agar plate bioassay; assay type: functional
Candida albicans [2] = assay: Antifungal activity against Candida albicans ATCC 32032 assessed as growth inhibition after 24 to 48 hrs by agar plate bioassay; assay type: functional
Saccharomyces cerevisiae [3] = assay: Antifungal activity against Saccharomyces cerevisiae ATCC 24657 assessed as growth inhibition after 24 to 48 hrs by spectrophotometric bioassay; assay type: functional
Saccharomyces cerevisiae [4] = assay: Fungistatic activity against Saccharomyces cerevisiae ATCC 24657 assessed as cell proliferation compound after 24 to 48 hrs by agar plate bioassay; assay type: functional, organism-based
Saccharomyces cerevisiae [5] = assay: Fungistatic activity against Saccharomyces cerevisiae ATCC 24657 assessed as cell proliferation compound after 24 to 48 hrs by spectrophotometric bioassay; assay type: functional, organism-based
Candida albicans [6] = assay: Antifungal activity against Candida albicans assessed as morphogenetic transformation after 3 hrs by phase-contrast microscopy; assay type: functional

C=CCSc1ncccc1C1=NN(CC(=O)N(CCC(=O)OCC)Cc2ccco2)C(=O)C1
MIC (Saccharomyces cerevisiae [1]): > 200 µM

CC1CCc2c(sc(NC(=O)Sc3nnc(-c4ccc(Cl)cc4)n3-c3ccccc3)c2C#N)C1 (stereo unspecified)
MIC (Candida albicans [2]): > 100 µM

COC(=O)c1cscc1NC(=O)CC(CC(=O)O)c1ccccc1 (stereo unspecified)
MIC (Saccharomyces cerevisiae [1]): > 200 µM

CC1=C(C#N)C(c2sc3ccccc3c2C)C2=C(CCCC2=O)N1 (stereo unspecified)
MIC (Saccharomyces cerevisiae [1]): > 250 µM | MIC50 (Saccharomyces cerevisiae [1]): 118 µM (≈ 39.5 µg/mL)

FC(F)(F)Oc1ccc(C2c3ccsc3CCN2Cc2ccc3c(c2)CCO3)cc1 (stereo unspecified)
MIC50 (Saccharomyces cerevisiae [1]): 120 µM (≈ 51.8 µg/mL)

Cc1c(-c2ccccc2)sc(/N=C/c2cc(Cl)cc(Cl)c2O)c1C#N
MIC (Candida albicans [2]): 40 µM (≈ 15.5 µg/mL)

COC(=O)c1scc(C)c1NC(=O)c1ccc(C(C)(C)C)cc1
MIC (Saccharomyces cerevisiae [1]): > 200 µM

C=CCNc1ncnc2sc3c(c12)CCCC3
MIC (Saccharomyces cerevisiae [3]): 100 µM (≈ 24.5 µg/mL) | MIC50 (Saccharomyces cerevisiae [3]): 9.98 µM (≈ 2.45 µg/mL) | Activity (Saccharomyces cerevisiae [4]): inactive | growth inhibition (GI) (Saccharomyces cerevisiae [1]): inactive | Activity (Saccharomyces cerevisiae [5]): inactive

Cc1ccc(C(=O)CC(Sc2ccc3ccccc3c2)c2ccsc2)cc1 (stereo unspecified)
MIC (Saccharomyces cerevisiae [1]): > 150 µM

c1ccc(Cc2ccncc2)cc1
MIC (Saccharomyces cerevisiae [1]): > 200 µM | MIC50 (Saccharomyces cerevisiae [1]): 100 µM (≈ 16.9 µg/mL)

Cc1n[nH]c(=O)c(N)c1-c1cc(-c2ccsc2)[nH]n1
MIC (Saccharomyces cerevisiae [1]): > 200 µM

C=CCOc1ccc(/C=C2\CCc3cc(OC)ccc3C2=O)cc1
MIC (Saccharomyces cerevisiae [1]): > 200 µM

Cc1n[nH]c(=O)c2noc(/C=C/c3ccsc3)c12
MIC (Saccharomyces cerevisiae [1]): > 200 µM

CCOc1ccc(/N=C/c2ccc(N(C)CCC#N)cc2)cc1
MIC (Saccharomyces cerevisiae [1]): > 200 µM

OC(Cn1cncn1)(Cn1cncn1)c1ccc(F)cc1F [FLUCONAZOLE]
MIC (Candida albicans [6]): 104 µM (≈ 32 µg/mL)

COc1ccc(NC(=S)N/N=C/c2ccc(N(C)CCC#N)cc2)cc1
MIC (Saccharomyces cerevisiae [1]): > 200 µM

O=[N+]([O-])c1ccc(Cc2ccncc2)cc1
MIC (Saccharomyces cerevisiae [1]): > 200 µM | MIC50 (Saccharomyces cerevisiae [1]): 120 µM (≈ 25.7 µg/mL)

CN(CCC#N)c1ccc(/C=N/NC(=O)N/N=C/c2ccc(N(C)CCC#N)cc2)cc1
MIC (Saccharomyces cerevisiae [1]): > 200 µM

COc1cc(C(=O)N(CCC#N)C2CC(C)CC(C)(C)C2)cc(OC)c1OC (stereo unspecified)
MIC (Saccharomyces cerevisiae [1]): > 200 µM

CN(C/C=C/C#CC(C)(C)C)Cc1cccc2ccccc12 [TERBINAFINE]
MIC (Candida albicans [6]): 439 µM (≈ 128 µg/mL)

O=C(/C=C\c1ccco1)NCC(=O)N1CCC(c2nccn2CCc2ccsc2)CC1
MIC (Saccharomyces cerevisiae [1]): > 200 µM

CCC(C)(C)c1ccc(CC(C)CN2C[C@@H](C)O[C@@H](C)C2)cc1 (stereo partly specified) [AMOROLFINE]
MIC (Candida albicans [6]): 202 µM (≈ 64 µg/mL)

N#CC(C#N)=CNc1ccc2oc3ncccc3c(=O)c2c1
MIC (Saccharomyces cerevisiae [1]): > 200 µM

O=C(c1ccncc1)c1ccc(Cl)cc1
MIC (Saccharomyces cerevisiae [1]): > 200 µM | MIC50 (Saccharomyces cerevisiae [1]): 100 µM (≈ 21.8 µg/mL)

Cc1ccc(C(=O)N(C)Cc2ccco2)c(C2CCN(C(=O)/C=C/c3ccc4c(c3)OCO4)CC2)n1
MIC (Saccharomyces cerevisiae [1]): > 200 µM

Cc1nc(C)c(C(=O)N2CCC(c3nc(C(=O)N(CCC#N)Cc4ccco4)cs3)CC2)s1
MIC (Saccharomyces cerevisiae [1]): > 200 µM

C=CCn1c(SCC(=O)c2ccccc2)nc2sc3c(c2c1=O)CCC(C)C3 (stereo unspecified)
MIC (Saccharomyces cerevisiae [1]): > 200 µM

Cc1ccc(C(=O)N(C)Cc2ccco2)c(C2CCN(C(=O)c3cc(O)nc4ccccc34)CC2)n1
MIC (Saccharomyces cerevisiae [1]): > 200 µM
